By IC50 is commonly meant the concentration needed to halve the response being measured.

Bounds are passed on as bounds.

We go through 68 compounds from patent publication US8916565B2, “Pyrrolopyrazine-spirocyclic piperidine amides as modulators of ion channels” (priority 2011, dated 2014).

Sequence of human NaV subtype, like NaV 1.7 (Q15858 whole entry): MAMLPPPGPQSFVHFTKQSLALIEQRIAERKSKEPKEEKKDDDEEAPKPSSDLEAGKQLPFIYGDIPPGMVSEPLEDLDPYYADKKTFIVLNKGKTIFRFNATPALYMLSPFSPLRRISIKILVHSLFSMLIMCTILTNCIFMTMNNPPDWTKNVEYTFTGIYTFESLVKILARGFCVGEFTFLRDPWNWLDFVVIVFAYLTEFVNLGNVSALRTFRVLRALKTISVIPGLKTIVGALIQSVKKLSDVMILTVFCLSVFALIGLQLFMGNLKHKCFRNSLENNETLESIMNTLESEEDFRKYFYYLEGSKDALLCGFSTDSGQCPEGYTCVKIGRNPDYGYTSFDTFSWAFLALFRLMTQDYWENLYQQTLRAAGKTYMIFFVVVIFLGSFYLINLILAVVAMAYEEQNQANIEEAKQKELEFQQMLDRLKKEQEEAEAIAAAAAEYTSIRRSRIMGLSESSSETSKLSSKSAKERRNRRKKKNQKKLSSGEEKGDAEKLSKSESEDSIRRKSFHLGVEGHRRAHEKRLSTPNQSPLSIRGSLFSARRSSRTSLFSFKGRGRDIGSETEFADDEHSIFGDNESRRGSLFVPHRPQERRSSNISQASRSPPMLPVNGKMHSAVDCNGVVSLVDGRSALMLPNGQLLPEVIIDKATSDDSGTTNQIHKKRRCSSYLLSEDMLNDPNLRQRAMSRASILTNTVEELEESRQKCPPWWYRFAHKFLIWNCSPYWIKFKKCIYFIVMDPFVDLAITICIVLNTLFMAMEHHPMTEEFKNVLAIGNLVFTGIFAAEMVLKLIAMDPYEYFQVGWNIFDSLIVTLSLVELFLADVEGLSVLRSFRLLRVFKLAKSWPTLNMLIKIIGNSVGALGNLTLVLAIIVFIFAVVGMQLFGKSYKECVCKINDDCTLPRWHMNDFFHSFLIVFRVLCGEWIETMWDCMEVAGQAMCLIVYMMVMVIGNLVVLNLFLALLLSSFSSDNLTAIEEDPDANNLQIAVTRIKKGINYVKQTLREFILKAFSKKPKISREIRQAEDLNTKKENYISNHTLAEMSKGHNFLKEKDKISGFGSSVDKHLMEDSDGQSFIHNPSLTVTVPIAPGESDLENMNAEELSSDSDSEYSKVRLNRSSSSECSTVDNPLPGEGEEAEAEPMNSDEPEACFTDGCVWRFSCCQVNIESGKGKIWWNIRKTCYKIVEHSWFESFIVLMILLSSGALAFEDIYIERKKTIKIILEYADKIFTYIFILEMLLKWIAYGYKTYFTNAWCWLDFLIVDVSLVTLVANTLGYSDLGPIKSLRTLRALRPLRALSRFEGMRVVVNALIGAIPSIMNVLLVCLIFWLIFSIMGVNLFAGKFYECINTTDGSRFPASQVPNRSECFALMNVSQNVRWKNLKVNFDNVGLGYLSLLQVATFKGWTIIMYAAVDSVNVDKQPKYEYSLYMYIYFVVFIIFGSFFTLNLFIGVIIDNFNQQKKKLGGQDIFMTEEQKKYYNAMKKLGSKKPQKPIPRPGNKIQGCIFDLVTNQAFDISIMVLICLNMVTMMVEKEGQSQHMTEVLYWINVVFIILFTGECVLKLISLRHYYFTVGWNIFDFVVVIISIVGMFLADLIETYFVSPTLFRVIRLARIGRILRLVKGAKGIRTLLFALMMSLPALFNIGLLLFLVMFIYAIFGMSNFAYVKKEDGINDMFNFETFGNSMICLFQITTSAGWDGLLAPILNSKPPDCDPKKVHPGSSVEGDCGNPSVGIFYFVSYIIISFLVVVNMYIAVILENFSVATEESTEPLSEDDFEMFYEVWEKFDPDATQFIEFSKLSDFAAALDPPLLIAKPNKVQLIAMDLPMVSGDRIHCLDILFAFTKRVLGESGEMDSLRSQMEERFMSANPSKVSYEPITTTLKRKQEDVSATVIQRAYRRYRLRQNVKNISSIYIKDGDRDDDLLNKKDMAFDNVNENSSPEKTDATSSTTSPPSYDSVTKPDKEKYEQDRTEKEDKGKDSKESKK

This assay addresses human NaV subtype, like NaV 1.7 (Homo sapiens, UniProt Q15858). The experiment in a line: E-VIPR optical membrane potential assay with electrical stimulation. It is filed as cell-based. The settings on record: active against one or more sodium channels; Table 3 does not name the assay or NaV subtype; read-out: Binned Activity Data (IC50).
Regarding `CCCOc1cc(C(=O)N2CCC3(CC2)c2ccc(C(=O)C(F)(F)F)n2CCN3C)ccc1OC` [Compound 142], the IC50 was at most 2000 nM. Under `CC(C)Oc1ccc(C(=O)N2CCC3(CC2)c2ccc(C(F)(F)F)n2CCN3C)cc1` [Compound 488] stands at most 2000 nM; under `CN1CCn2c(C(=O)C3CC3)ccc2C12CCN(C(=O)c1ccc(O)c(Cl)c1)CC2` [Compound 31], 2000 to 5000 nM; under `COc1ccc(C(=O)N2CCC3(CC2)c2ccc(C(=O)C(F)(F)F)n2C[C@H](C)N3C)cc1Cl` [Compound 608], at most 2000 nM. `COCCOc1ccc(C(=O)N2CCC3(CC2)c2c(F)cc(C(F)(F)F)n2CCN3C)cc1OC` [Compound 187]: the half-maximal inhibitory concentration (IC50) was at most 2000 nM. `CN1CCn2c(Cl)ccc2C12CCN(C(=O)c1ccc(C(C)(C)C)cc1)CC2` [Compound 625]: the IC50 is over 5000 nM. Next, `Cc1cc(C(=O)N2CCC3(CC2)c2ccc(C(=O)C(C)(C)C)n2CCN3C)ccc1OCCCO` [Compound 711]: at most 2000 nM. For the compound `CCCOc1cc(C(=O)N2CCC3(CC2)c2ccc(C(C)=O)n2CCN3C)ccc1OC` [Compound 606], the IC50 was over 5000 nM. For `CC(C)Oc1ccc(C(=O)N2CCC3(CC2)NCCn2c(C(F)(F)F)ccc23)cc1F` [Compound 477], the IC50 is at most 2000 nM. `CCN(CC)c1ncccc1C(=O)N1CCC2(CC1)c1ccc(C(F)(F)F)n1CCN2C` [Compound 684]: the IC50 was over 5000 nM.

Consider `CN1CCn2c(C(=O)C(F)(F)F)ccc2C12CCN(C(=O)c1ccc(OC3CCOCC3)cc1)CC2` [Compound 645], for which the IC50 was at most 2000 nM. Under `Cc1cc(C(=O)N2CCC3(CC2)c2ccc(C(=O)C(F)(F)F)n2CCN3C)ccc1-c1cnn(C)c1` [Compound 383] stands 2000 to 5000 nM; under `CCOc1ccc(C(=O)N2CCC3(CC2)c2ccc(C(=O)C(F)(F)F)n2CCN3C)cc1OCC` [Compound 510], at most 2000 nM; under `COc1cc(C(=O)N2CCC3(CC2)c2ccc(C(C)=O)n2CCN3C)ccc1OC(C)C` [Compound 535], over 5000 nM. `COc1cc(C(=O)N2CCC3(CC2)c2ccc(C(F)(F)F)n2CC(C)N3C)ccc1OC(C)C` (centres unmarked) [Compound 149]: the IC50 was at most 2000 nM.

In the case of `CC(C)CCOc1ccc(C(=O)N2CCC3(CC2)c2ccc(C(=O)C(F)(F)F)n2C(C)CN3C)cc1` (centres unmarked) [Compound 646], the half-inhibitory concentration (IC50) was at most 2000 nM.

Turning to `Cc1cc(C(=O)N2CCC3(CC2)c2cc(C(=O)C(F)(F)F)cn2C(C)(C)CN3C)ccc1OC(C)C` [Compound 231], the IC50 was over 5000 nM. As to `CN1CCn2c(C(F)(F)F)ccc2C12CCN(C(=O)c1cccnc1N1CCC(F)(F)C1)CC2` [Compound 392], the concentration for half-maximal inhibition (IC50) lay in the range of 2000 to 5000 nM. Consider `Cc1cc(C(=O)N2CCC3(CC2)c2ccc(C(=O)C(C)C)n2CCN3C)ccc1OC(C)C` [Compound 182], for which the IC50 was at most 2000 nM. Turning to `CC(C)Oc1ccc(C(=O)N2CCC3(CC2)c2ccc(C(=O)C4CC4)n2CCN3C)cc1C(F)(F)F` [Compound 69], the IC50 is at most 2000 nM. For `COc1cc(C(=O)N2CCC3(CC2)NC(C)(C)Cn2c(C(F)(F)F)ccc23)ccc1OC(C)(C)C` [Compound 667], the IC50 was at most 2000 nM. Take `Cc1cc(C(=O)N2CCC3(CC2)c2ccc(C(=O)C4CC4)n2CCN3C)ccc1O` [Compound 476]: the IC50 is at most 2000 nM. Turning to `CC(=O)c1ccc2n1C(C)(C)CN(C)C21CCN(C(=O)c2ccc(OC(C)C)c(C)c2)CC1` [Compound 174], the IC50 is at most 2000 nM. For the compound `CC(=O)c1ccc2n1CCN(C)C21CCN(C(=O)c2ccc(OC(C)C)cc2F)CC1` [Compound 125], the concentration for half-maximal inhibition (IC50) lay within 2000 to 5000 nM. In the case of `Cc1cc(C(=O)N2CCC3(CC2)c2ccc(C(F)(F)C(F)(F)F)n2CCN3C)ccc1C(C)(C)O` [Compound 647], the IC50 is at most 2000 nM.

Consider `C[C@H]1Cn2c(C(=O)C(F)(F)F)ccc2C2(CCN(C(=O)c3ccc(O)c(Cl)c3)CC2)N1C` [Compound 700], for which the IC50 was at most 2000 nM.

As for `CCC(=O)c1ccc2n1CCN(C)C21CCN(C(=O)c2ccc(OC(C)C)c(C)c2)CC1` [Compound 704], the IC50 is at most 2000 nM.

Take `CCCCc1ccc(C(=O)N2CCC3(CC2)c2ccc(C(=O)C(F)(F)F)n2CCN3C)cc1` [Compound 740]: the IC50 is at most 2000 nM. For `CCc1ccc(C(=O)N2CCC3(CC2)c2ccc(Cl)n2CCN3C)cc1OC` [Compound 512], the IC50 is 2000 to 5000 nM.

`CN1CCn2c(C(F)(F)F)ccc2C12CCN(C(=O)c1ccc(CC(C)(C)O)cc1)CC2` [Compound 499]: the IC50 is at most 2000 nM. As to `Cc1cc(C(=O)N2CCC3(CC2)c2ccc(Cl)n2CCN3C)ccc1C(C)(C)O` [Compound 10], the IC50 is at most 2000 nM.

Consider `Cc1cc(C(=O)N2CCC3(CC2)c2cccn2CCN3Cc2ccccc2)ccc1OC(C)C` [Compound 39], for which the IC50 is at most 2000 nM. For `CNS(=O)(=O)c1ccc(C(=O)N2CCC3(CC2)c2ccc(C(F)(F)C(F)(F)F)n2CCN3C)cc1C` [Compound 13], the IC50 is at most 2000 nM. Under `CCn1cnc(-c2ccc(C(=O)N3CCC4(CC3)c3ccc(C(=O)C(F)(F)F)n3CCN4C)cc2C)c1` [Compound 489] stands at most 2000 nM; under `CC(=O)c1ccc2n1CCN(C)C21CCN(C(=O)c2ccc(OC(F)(F)F)cc2)CC1` [Compound 577], over 5000 nM; under `CC(=O)c1ccc2n1C(C)(C)CN(C)C21CCN(C(=O)c2ccc(OC(C)C)c(C(F)(F)F)c2)CC1` [Compound 536], 2000 to 5000 nM. Turning to `COc1cc(C(=O)N2CCC3(CC2)c2ccc(C(C)=O)n2CCN3C)ccc1C(C)(C)C` [Compound 56], the half-maximal inhibitory concentration (IC50) was at most 2000 nM.

Turning to `CN1CCn2c(C(F)(F)F)ccc2C12CCN(C(=O)c1cnn3c(C(F)F)cc(C4CC4)nc13)CC2` [Compound 21], the IC50 is over 5000 nM.

As to `CCCCOc1ccc(C(=O)N2CCC3(CC2)c2ccc(C(C)=O)n2CCN3C)cc1` [Compound 34], the concentration for half-maximal inhibition (IC50) was at most 2000 nM. Take `COc1cc(C(=O)N2CCC3(CC2)c2ccc(C(=O)C(F)(F)F)n2CCN3C)ccc1C(C)(C)C` [Compound 423]: the IC50 is at most 2000 nM. Under `CN1CCn2c(C(F)(F)F)ccc2C12CCN(C(=O)c1ccc(S(=O)(=O)C(C)(C)C)cc1)CC2` [Compound 441] stands at most 2000 nM; under `CC(C)Oc1ccc(C(=O)N2CCC3(CC2)c2ccc(C(F)(F)C(F)(F)F)n2CCN3C)cc1Cl` [Compound 664], at most 2000 nM; under `Cc1cc(C(=O)N2CCC3(CC2)c2ccc(C(F)(F)F)n2CCN3CC(N)=O)ccc1OC(C)C` [Compound 571], 2000 to 5000 nM. Take `COc1cc(C(=O)N2CCC3(CC2)N[C@H]2CCCC[C@H]2n2cccc23)ccc1C(C)(C)C` [Compound 110]: the IC50 was at most 2000 nM. As for `COc1cc(C(=O)N2CCC3(CC2)c2ccc(C(F)(F)F)n2CCN3C)ccc1OC(C)C` [Compound 443], the IC50 was at most 2000 nM.

For the compound `COCCN1CCn2c(C(F)(F)F)ccc2C12CCN(C(=O)c1ccc(C(C)(C)O)cc1)CC2` [Compound 701], the IC50 is at most 2000 nM. Under `CC[C@H](C)Oc1ccc(C(=O)N2CCC3(CC2)NCCn2c(C(F)(F)F)ccc23)cc1OC` [Compound 522] stands at most 2000 nM; under `CN1CCn2c(C(F)(F)F)cc(Cl)c2C12CCN(C(=O)c1ccc(COCCC(F)(F)F)cc1)CC2` [Compound 102], at most 2000 nM. With `CCOc1cc(C(=O)N2CCC3(CC2)c2ccc(C(F)(F)F)n2CCN3C)ccc1CO` [Compound 579], the IC50 was at most 2000 nM. With `CCC(C)(C)c1ccc(C(=O)N2CCC3(CC2)c2ccc(C(=O)C(F)(F)F)n2CCN3C)cc1` [Compound 54], the IC50 fell in the range of 2000 to 5000 nM. Consider `COc1ccc(C(=O)N2CCC3(CC2)c2ccc(C(=O)C(C)(C)C)n2CCN3C)cc1C` [Compound 314], for which the IC50 is at most 2000 nM. `CC(=O)c1ccc2n1CCN(C)C21CCN(C(=O)c2ccc(C3CCCCC3)cc2)CC1` [Compound 559]: the IC50 was at most 2000 nM. Turning to `Cc1cc(C(=O)N2CCC3(CC2)c2c(C#N)cc(C(F)(F)F)n2CCN3C)ccc1OC(C)C` [Compound 526], the IC50 was at most 2000 nM. Regarding `Cc1cc(C(=O)N2CCC3(CC2)c2ccc(C(=O)C(F)(F)F)n2CCN3C)ccc1O` [Compound 201], the IC50 is at most 2000 nM. Next, `CC(=O)c1ccc2n1CCN(C)C21CCN(C(=O)c2ccc(OCC(F)(F)F)cc2)CC1` [Compound 520]: at most 2000 nM. `COc1ccc(C(=O)N2CCC3(CC2)c2ccc(C(=O)C(F)(F)F)n2CCN3C)cc1F` [Compound 121]: the IC50 is over 5000 nM.

With `CCc1ccc(C(=O)N2CCC3(CC2)c2ccc(C(F)(F)F)n2CCN3CCOC)cc1OC` [Compound 80], the IC50 is at most 2000 nM. Turning to `CC(=O)c1ccc2n1CCN(C)C21CCN(C(=O)c2ccc(N3CCCCC3)cc2)CC1` [Compound 504], the IC50 is over 5000 nM. Under `CN1CCn2c(C(=O)C(F)(F)F)ccc2C12CCN(C(=O)c1ccc(C3CC3)cc1)CC2` [Compound 389] stands at most 2000 nM; under `CC1(C)Cn2c(C(=O)C(F)(F)F)ccc2C2(CCN(C(=O)c3ccc(COCC(F)(F)F)cc3)CC2)N1` [Compound 41], at most 2000 nM. As to `CC(C)C(=O)c1ccc2n1CCN(C)C21CCN(C(=O)c2ccc(COCCC(F)(F)F)cc2)CC1` [Compound 359], the IC50 is at most 2000 nM. Take `CCN1CCn2c(C(F)(F)F)ccc2C12CCN(C(=O)c1ccc(OC(C)C)c(OC)c1)CC2` [Compound 167]: the IC50 is at most 2000 nM.

As for `CC(=O)c1ccc2n1CC(C)(C)NC21CCN(C(=O)c2ccc(OC(C)C)c(C(F)(F)F)c2)CC1` [Compound 610], the IC50 is at most 2000 nM. On to `CCCc1ccc(C(=O)N2CCC3(CC2)c2ccc(C(C)=O)n2CCN3C)cc1` [Compound 292], for which the half-inhibitory concentration (IC50) was over 5000 nM.

Take `CC1(C)Cn2c(C(=O)C(F)(F)F)ccc2C2(CCN(C(=O)c3ccc(OCC4CC4)c(F)c3)CC2)N1` [Compound 509]: the IC50 is at most 2000 nM. Next, `CCc1ccc(C(=O)N2CCC3(CC2)c2ccc(C(=O)C(F)(F)F)n2CCN3C)nc1` [Compound 331]: over 5000 nM.

Regarding `Cc1cc(C(=O)N2CCC3(CC2)c2ccc(C(=O)C(F)(F)F)n2C[C@H](C)N3C)ccc1O` [Compound 207], the IC50 was at most 2000 nM. Under `COc1ccc(C(=O)N2CCC3(CC2)c2ccc(C(=O)C(C)C)n2CCN3C)cc1Cl` [Compound 413] stands at most 2000 nM.
